Laboratory results taken from patent US10363239B2, “Method for inhibiting growth of cancer cells” (Pain Therapeutics, Inc., priority 2013, dated 2019).
Like-named read-outs stand apart in the source and are kept apart here.

Tests used:
mu opiate receptor (MOR) = experiment: MOR agonist activity using [35S]GTPγS binding assay in striatal membranes; type: biochemical; conditions: for MOR agonist activity ([35S]GTPγS binding), FLNA-Binding Compound as Agonist 1 μM + BFNA: 1 μM compound + 1 μM β-funaltrexamine
Summary of the method: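 Striatal membranes (200 μg) were preincubated 5 min at 30 °C in HEPES pH 7.5 with 100 mM NaCl, 1 mM MgCl2 and 0.5 nM [35S]GTPγS, then 5 min more with 0.1–10 μM compound. Gαo was immunoprecipitated and bound radioactivity counted by scintillation.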

[1] = biological target: FLNA pentapeptide of SEQ ID NO: 1 (Bn-VAKGL) (Homo sapiens, UniProt P21333); experiment: FITC-NLX-based FLNA screening assay (inhibition of FITC-naloxone binding to Bn-VAKGL on streptavidin plates); conditions: 10 nM FITC-NLX
[2] = 0.1 μM compound relative to DAMGO
[3] = 1 μM compound + BFNA relative to DAMGO + BFNA
[4] = 1 μM compound relative to DAMGO
[5] = read-out: Percent Binding Inhibition, FLNA-binding compound 0.01 μM
[6] = read-out: Percent Binding Inhibition, FLNA-binding compound 0.1 μM
[7] = read-out: Percent Binding Inhibition, FLNA-binding compound 1 μM
[8] = FLNA-binding compound 0.01 μM, read-out: Percent Binding Inhibition
[9] = FLNA-binding compound 0.1 μM, read-out: Percent Binding Inhibition
[10] = FLNA-binding compound 1 μM, read-out: Percent Binding Inhibition
[11] = Series C-2, 0.1 μM compound, relative to DAMGO
[12] = Series C-2, 0.1 μM compound, [35S]GTPγS binding to Gαo, striatal membranes
[13] = Series C-2, 1 μM compound + 1 μM β-FNA
[14] = Series C-2, 1 μM compound + β-FNA, relative to DAMGO + BFNA
[15] = Series C-2, 1 μM compound, relative to DAMGO
[16] = Series C-2, 1 μM compound, [35S]GTPγS binding to Gαo, striatal membranes
[17] = Series C-1, 0.1 μM compound, relative to DAMGO
[18] = Series C-1, 0.1 μM compound, [35S]GTPγS binding to Gαo, striatal membranes
[19] = Series C-1, 1 μM compound + 1 μM β-FNA
[20] = Series C-1, 1 μM compound + β-FNA, relative to DAMGO + BFNA
[21] = Series C-1, 1 μM compound, relative to DAMGO
[22] = Series C-1, 1 μM compound, [35S]GTPγS binding to Gαo, striatal membranes

SMILES | MOR agonist activity ([35S]GTPγS binding), FLNA-Binding Compound as Agonist 0.1 μM (mu opiate receptor (MOR); 0.1 μM compound) [%] | % DAMGO (0.1 μM) (mu opiate receptor (MOR); [2]) [%] | MOR agonist activity ([35S]GTPγS binding), FLNA-Binding Compound as Agonist 1 μM (mu opiate receptor (MOR); 1 μM compound) [%] | MOR agonist activity ([35S]GTPγS binding), FLNA-Binding Compound as Agonist 1 μM + BFNA (mu opiate receptor (MOR)) [%] | % DAMGO + BFNA (mu opiate receptor (MOR); [3]) [%] | % DAMGO (1 μM) (mu opiate receptor (MOR); [4]) [%] | inhibition at 0.01 µM [1, 5] [%] | inhibition at 0.1 µM [1, 6] [%] | inhibition at 1 µM [1, 7] [%] | inhibition at 0.01 µM [1, 8] [%] | inhibition at 0.1 µM [1, 9] [%] | inhibition at 1 µM [1, 10] [%] | % DAMGO (0.1 μM) (mu opiate receptor (MOR); [17]) [%] | Concentration of FLNA-Binding Compound as Agonist 0.1 μM (mu opiate receptor (MOR); [18]) [%] | Concentration of FLNA-Binding Compound as Agonist 1 μM + BFNA (mu opiate receptor (MOR); [19]) [%] | % DAMGO + BFNA (mu opiate receptor (MOR); [20]) [%] | % DAMGO (1 μM) (mu opiate receptor (MOR); [21]) [%] | Concentration of FLNA-Binding Compound as Agonist 1 μM (mu opiate receptor (MOR); [22]) [%] | also measured
CC1CN(CC(O)COc2ccccc2)CC(C)O1 (stereo not drawn) [Compound A0025] | 58.6 | 33.2 | 138.7 | 52.2 | 198.5 | 54.5 | 39 | 49.8 | 53.2 | – | – | – | – | – | – | – | – | – | –
CC1CCC(C(C)C)C(OCC(O)CN2CCCCCCC2)C1 (stereo not drawn) [Compound A0014] | 147.0 | 83.2 | 174.9 | 140.8 | 214.3 | 67.5 | – | – | – | 33.8 | 39.7 | 44.7 | – | – | – | – | – | – | –
COc1cccc(OC)c1CC(=O)CC1c2c(cc3c(c2OC)OCO3)CC[N+]1(C)C (stereo not drawn) [Compound B0036] | – | – | – | – | – | – | 46.6 | 52.8 | 62.1 | – | – | – | – | – | – | – | – | – | % DAMGO (0.1 μM) (mu opiate receptor (MOR); Series B, 0.1 μM compound, relative to DAMGO): 39.2%; MOR agonist activity, percent [35S]GTPγS binding at the stated compound concentration (mu opiate receptor (MOR); Series B, 0.1 μM compound, [35S]GTPγS binding to Gαo, striatal membranes): 61.4%; MOR agonist activity, percent [35S]GTPγS binding at the stated compound concentration (mu opiate receptor (MOR); Series B, 1 μM compound + 1 μM β-FNA): 65.1%; % DAMGO + BFNA (mu opiate receptor (MOR); Series B, 1 μM compound + β-FNA, relative to DAMGO + BFNA): 199.7%; % DAMGO (1 μM) (mu opiate receptor (MOR); Series B, 1 μM compound, relative to DAMGO): 52.1%; MOR agonist activity, percent [35S]GTPγS binding at the stated compound concentration (mu opiate receptor (MOR); Series B, 1 μM compound, [35S]GTPγS binding to Gαo, striatal membranes): 120.6%
CS(=O)(=O)c1ccc(S(=O)(=O)N2CCOC23CCN(CC2CC2)CC3)cc1 [Compound C0126M] | – | – | – | – | – | – | – | – | – | 50.7 | 55.4 | 67.3 | – | – | – | – | – | – | % DAMGO (0.1 μM) (mu opiate receptor (MOR); [11]): 108.5%; MOR agonist activity, percent [35S]GTPγS binding at the stated compound concentration (mu opiate receptor (MOR); [12]): 181.8%; MOR agonist activity, percent [35S]GTPγS binding at the stated compound concentration (mu opiate receptor (MOR); [13]): 108.5%; % DAMGO + BFNA (mu opiate receptor (MOR); [14]): 228.4%; % DAMGO (1 μM) (mu opiate receptor (MOR); [15]): 119.3%; MOR agonist activity, percent [35S]GTPγS binding at the stated compound concentration (mu opiate receptor (MOR); [16]): 265.3%
CC(=O)c1ccc(C(=O)N2CCC3(CC2)OCCN3C(=O)c2ccc(C(C)=O)cc2)cc1 [Compound C0054] | – | – | – | – | – | – | – | – | – | 32.9 | 39.4 | 43.3 | 47.0 | 68.2 | 43.5 | 98.9 | 54.5 | 127.0 | –
O=[N+]([O-])c1ccc(S(=O)(=O)N2CCC3(CC2)NCCS3)cc1 [Compound C0044] | – | – | – | – | – | – | – | – | – | 37.3 | 43.9 | 50.6 | – | – | – | – | – | – | % DAMGO (0.1 μM) (mu opiate receptor (MOR); [11]): 102.8%; MOR agonist activity, percent [35S]GTPγS binding at the stated compound concentration (mu opiate receptor (MOR); [12]): 173.7%; MOR agonist activity, percent [35S]GTPγS binding at the stated compound concentration (mu opiate receptor (MOR); [13]): 59.1%; % DAMGO + BFNA (mu opiate receptor (MOR); [14]): 356.0%; % DAMGO (1 μM) (mu opiate receptor (MOR); [15]): 128.0%; MOR agonist activity, percent [35S]GTPγS binding at the stated compound concentration (mu opiate receptor (MOR); [16]): 280.1%
NS(=O)(=O)c1ccc(S(=O)(=O)N2CCC3(CC2)OCCN3S(=O)(=O)c2ccc(S(N)(=O)=O)cc2)cc1 [Compound C0034] | – | – | – | – | – | – | 29.6 | 38.3 | 44.8 | – | – | – | 61.3 | 103.6 | 80.1 | 482.5 | 76.7 | 167.9 | –
CC1CCN(CC(O)COC2CC(C)CCC2C(C)C)CC1 (stereo not drawn) [Compound A0006] | 170.0 | 113.8 | 190.9 | 18.2 | 68.7 | 82.9 | – | – | – | 37.9 | 43.5 | 47.5 | – | – | – | – | – | – | –
O=S(=O)(c1csc2ccccc12)N1CCC2(CC1)OCCN2S(=O)(=O)c1csc2ccccc12 [Compound C0150M] | – | – | – | – | – | – | 47.3 | 51.8 | 61.4 | – | – | – | 97.2 | 167.1 | 93.4 | 173.2 | 129.8 | 423.1 | –
